Results as given in EP1408948B1, “THYROID THERAPEUTIC AGENT COMPRISING PARTIAL GLYCERIDES AND DEXTRINE” (BERLIN-CHEMIE Aktiengesellschaft, priority 2001, dated 2003).

Experiments:
[1] = oral, steady state after 6 weeks of medication, patients on long-term medication; cited from earlier work
[2] = Bioavailability studies of levothyroxine sodium tablets of different strengths (pharmacokinetic parameters, dose linearity); format: in vivo; details: tablets of 50, 100, 150 and 200 µg made from one base formulation, oral
Description: Die ermittelten pharmakokinetischen Parameter der in vivo geprüften 50, 100, 150 und 200 µg Levothyroxin-Natrium enthaltenden Tabletten sind in Tabelle 1 aufgeführt.

[3] = In vitro release of Levothyroxin-Natrium from tablets, paddle apparatus; format: physicochemical; details: tablets of 50, 100, 150, 200 µg, 100 rpm, 500 ml phosphate buffer pH 7,4, data only in Fig. 1-4
Description: Die folgenden in vitro Untersuchungen der erfindungsgemäß hergestellten Tabletten belegen, dass der Wirkstoff Levothyroxin-Natrium aus den Tabletten der unterschiedlichen Dosierungen in gleicher Geschwindigkeit und […] Ausmaß freigesetzt und somit dem Körper zur Verfügung gestellt werden kann. Die Untersuchungen zur Freisetzung wurden mit den Tabletten gemäß den Beispielen 2 und 3 durchgeführt. In den Figuren 1 bis 4 ist die jeweilige Freisetzung dargestellt. An […] % angegeben, an […] Zeit aufgetragen. Die Balken geben den Vertrauensbereich des […] von Levothyroxin-Natrium aus Tabletten (50 μg), Tablettenmasse 52 mg, Paddle-Apparatur, 100 rpm, […]: 500 ml Phosphatpuffer pH 7,4; • Fig. 2: Freisetzung von Levothyroxin-Natrium aus Tabletten (100 μg), Tablettenmasse 104 mg, Paddle-Apparatur, 100 rpm, […]: 500 ml Phosphatpuffer pH 7, 4; • Fig. 3: Freisetzung von Levothyroxin-Natrium aus Tabletten (150 μg), Tablettenmasse 156 mg, Paddle-Apparatur, 100 rpm, […]: 500 ml Phosphatpuffer pH 7,4 und • Fig. 4: Freisetzung von Levothyroxin-Natrium aus Tabletten (200 μg), Tablettenmasse 208 mg, Paddle-Apparatur, 100 rpm, […]: 500 ml Phosphatpuffer pH 7,4.

Compound | Kinetik (L-Thyroxin-Serumkonzentration, AUC 0 x 24, Cmax, Ctrough) [1] | Dosislinearität [2] | Freisetzung von Levothyroxin-Natrium aus Tabletten [3]
N[C@@H](Cc1cc(I)c(Oc2cc(I)c(O)c(I)c2)c(I)c1)C(=O)O [L-Thyroxin] | nicht-linearen Kinetik |  | 
N[C@@H](Cc1cc(I)c(Oc2cc(I)c(O)c(I)c2)c(I)c1)C(=O)O [Levothyroxin-Natrium] |  | klare Dosislinearität | in gleicher Geschwindigkeit und gleichem Ausmaß freigesetzt
